For orientation: melting point means the temperature, or range, at which the solid turns liquid.

The results in this text go back to patent US20090253709A1 (NATIONAL DEFENSE MEDICAL CENTER, priority 2008, published 2009).

Tested on in one data set: not listed separately
Nature of the data set: MTT assay in H1299 cells. The data set is classed as cell-based. The following applies: human, H1299 cells (H1299/PhTERT-driven SEAP reporter system); H1299; compound concentration 1 μM; read-out: MTT (Inhibition μM ± SD). Here is the method:
H1299 is a non-small cell lung cancer cell line with telomerase activity. The cell extract of H1299 cell lines can be used for selecting the telomerase activity inhibitors in vitro and the telomerase activity-inhibited substances in vivo. H1299 cell line was incubated with RPMI 1640 medium supplemented with 10% of fetal bovine serum (FBS). A total of 2×10^3 […] cells were seeded in the 96-well cell culture plate, and incubated with DMEM (GIBCO®)/glucose mixture and Medium 199 (GIBCO®)/10% FBS/1 mM sodium pyruvate (GIBCO®)/4 mM L-glutamine (GIBCO®) mixture at a ratio of 4:1 at 37° C. for 24 hours. […] After 48 hours of drug treatment, the cultured medium were collected for performing the analysis of SEAP activity. The cells were washed with 1×PBS once immediately, and the MTT assay was performed to compare the compounds with the relative toxicity or the influence to the proliferation and activity. Mitochondria is the place for cellular respiration, and there are many reductive reactions catalyzed by dehydrogenases. MTT is a water-soluble yellow compound, and the […] will be formed after reduction. This crystal can be dissolved in the organic solvent, and has high absorbance at the wavelength of 570 nm. The higher cellular activity or more cell numbers, the more generated crystal violets. Therefore, the cellular activity and cell number can be obtained by the MTT assay. MTT solution was prepared by dissolving MTT powder in PBS solution to achieve 5 mg/ml, filtrated and stored at 4° C. Lysis buffer contained 20% (w/v) of SDS in 50% of N,N-dimethylformamide (DMF, Riedel-deHaën). After the cells were incubated in the 96-well culture plate, the original medium was discarded, 100 μl of the fresh serum-free medium per well and 25 μl of MTT solution per well were added in respectively, and the cells were further incubated in the CO2 incubator at 37° C. for 4 hours. Then, 100 μl of lysis buffer per well was added in and incubated overnight in the CO2 incubator at 37° C. The absorbance at 570 nm was determined by the ELISA reader. The selection of telomerase inhibitors of the anthraquinone compounds provided in the present invention was performed by the […]-driven SEAP system. SEAP is the communication gene in this drug selection model. The SEAP inhibition was shown as follows. […] Subsequently, the linear slope of absorbance to the measuring time was calculated, and the variance of absorbance at 405 nm per minute was represented and compared with the SEAP-producing result of drug-untreated H1299 cells. In addition, the influence of the cell-treated drug solution to the cellular proliferation and the drug toxicity to the cells were considered, and the cellular growth was evaluated by the MTT assay. The drug-treated cells were analyzed by the SEAP assay and the data analysis of MTT assay at the same time. Both results were compared so as to delete the influence of cell number or the activity to SEAP, and the dose-dependent phenomenon could be anticipated in the range of drug concentration designed by the laboratory. […] Since the chemically-synthetic drugs have colors thereon, the SEAP value of drug-treatment without cells was also determined to be the background value which was deducted while treating with the drugs. The candidate drug for inhibiting telomerase on the hTERT gene expression level was evaluated and anticipated.
A general note: Tetrazolium assays rely on reduction of a dye to a coloured formazan, in cell work by metabolically active cells.
Turning to `O=C1c2ccc([N+](=O)[O-])cc2C(=O)c2cc([N+](=O)[O-])ccc21` [Compound 1, 2,7-dinitroanthraquinone], the viability at 24 h, 1 µM was 97 ± 15%.

`O=C(CCl)Nc1ccc2c(c1)C(=O)c1cc(NC(=O)CCl)ccc1C2=O` [Compound 3, 2,7-bis(chloroacetamido)anthraquinone]: the viability at 24 h, 1 µM stood at 58 ± 44%.

Staying with this data set, now noted: human, H1299 cells (H1299/PhTERT-driven SEAP reporter system); H1299; compound concentration 10 μM; read-out: MTT (Inhibition μM ± SD).
Consider `O=C1c2ccc([N+](=O)[O-])cc2C(=O)c2cc([N+](=O)[O-])ccc21` [Compound 1, 2,7-dinitroanthraquinone], for which the viability at 24 h, 10 µM was determined as 95 ± 8%.

`O=C(CCl)Nc1ccc2c(c1)C(=O)c1cc(NC(=O)CCl)ccc1C2=O` [Compound 3, 2,7-bis(chloroacetamido)anthraquinone]: the viability at 24 h, 10 µM came out at 5 ± 3%.

Staying with this data set, now noted: human, H1299 cells (H1299/PhTERT-driven SEAP reporter system); H1299; compound concentration 100 μM; read-out: MTT (Inhibition μM ± SD).
On to `O=C1c2ccc([N+](=O)[O-])cc2C(=O)c2cc([N+](=O)[O-])ccc21` [Compound 1, 2,7-dinitroanthraquinone], for which the viability at 24 h, 100 µM stood at 69 ± 10%.

As for `O=C(CCl)Nc1ccc2c(c1)C(=O)c1cc(NC(=O)CCl)ccc1C2=O` [Compound 3, 2,7-bis(chloroacetamido)anthraquinone], the viability at 24 h, 100 µM stood at 1%.

Tested on in the next data set: not listed separately
Nature of the data set: MTT assay in BJ1 cells. Format: cell-based. Conditions: human, hTERT-BJ1-PTERT(3.4)-SEAP cells; BJ1; compound concentration 1 μM; read-out: MTT (Inhibition μM ± SD). The procedure: A total of 2×10^3 […] cells were seeded in the 96-well cell culture plate, and incubated with DMEM (GIBCO®)/glucose mixture and Medium 199 (GIBCO®)/10% FBS/1 mM sodium pyruvate (GIBCO®)/4 mM L-glutamine (GIBCO®) mixture at a ratio of 4:1 at 37° C. for 24 hours. […] After 48 hours of drug treatment, the cultured medium were collected for performing the analysis of SEAP activity. The cells were washed with 1×PBS once immediately, and the MTT assay was performed to compare the compounds with the relative toxicity or the influence to the proliferation and activity. Mitochondria is the place for cellular respiration, and there are many reductive reactions catalyzed by dehydrogenases. MTT is a water-soluble yellow compound, and the […] will be formed after reduction. This crystal can be dissolved in the organic solvent, and has high absorbance at the wavelength of 570 nm. The higher cellular activity or more cell numbers, the more generated crystal violets. Therefore, the cellular activity and cell number can be obtained by the MTT assay. MTT solution was prepared by dissolving MTT powder in PBS solution to achieve 5 mg/ml, filtrated and stored at 4° C. Lysis buffer contained 20% (w/v) of SDS in 50% of N,N-dimethylformamide (DMF, Riedel-deHaën). After the cells were incubated in the 96-well culture plate, the original medium was discarded, 100 μl of the fresh serum-free medium per well and 25 μl of MTT solution per well were added in respectively, and the cells were further incubated in the CO2 incubator at 37° C. for 4 hours. Then, 100 μl of lysis buffer per well was added in and incubated overnight in the CO2 incubator at 37° C. The absorbance at 570 nm was determined by the ELISA reader.
On to `O=C1c2ccc([N+](=O)[O-])cc2C(=O)c2cc([N+](=O)[O-])ccc21` [Compound 1, 2,7-dinitroanthraquinone], for which the viability at 48 h, 1 µM is 91 ± 2%.

`O=C(CCl)Nc1ccc2c(c1)C(=O)c1cc(NC(=O)CCl)ccc1C2=O` [Compound 3, 2,7-bis(chloroacetamido)anthraquinone]: the viability at 48 h, 1 µM was 105 ± 2%.

Staying with this data set, now noted: human, hTERT-BJ1-PTERT(3.4)-SEAP cells; BJ1; compound concentration 10 μM; read-out: MTT (Inhibition μM ± SD).
For the compound `O=C1c2ccc([N+](=O)[O-])cc2C(=O)c2cc([N+](=O)[O-])ccc21` [Compound 1, 2,7-dinitroanthraquinone], the viability at 48 h, 10 µM is 91 ± 2%.

Consider `O=C(CCl)Nc1ccc2c(c1)C(=O)c1cc(NC(=O)CCl)ccc1C2=O` [Compound 3, 2,7-bis(chloroacetamido)anthraquinone], for which the viability at 48 h, 10 µM stood at 89 ± 3%.

Still in this data set, the particulars now being: human, hTERT-BJ1-PTERT(3.4)-SEAP cells; BJ1; compound concentration 100 μM; read-out: MTT (Inhibition μM ± SD).
For `O=C1c2ccc([N+](=O)[O-])cc2C(=O)c2cc([N+](=O)[O-])ccc21` [Compound 1, 2,7-dinitroanthraquinone], the viability at 48 h, 100 µM came out at 86 ± 3%.

For `O=C(CCl)Nc1ccc2c(c1)C(=O)c1cc(NC(=O)CCl)ccc1C2=O` [Compound 3, 2,7-bis(chloroacetamido)anthraquinone], the viability at 48 h, 100 µM was found to be 88 ± 2%.

Another data set has as its system hTERT expression. Nature of the data set: SEAP assay in hTERT-BJ1-PTERT(3.4)-SEAP cells. The data set is classed as cell-based. The following applies: Homo sapiens, read-out: SEAP (Inhibition μM ± SD). Here is the method:
A total of 2×10^3 hTERT-BJ1-PTERT(3.4)-SEAP cells were seeded in the 96-well cell culture plate, and incubated with DMEM (GIBCO®)/glucose mixture and Medium 199 (GIBCO®)/10% FBS/1 mM sodium pyruvate (GIBCO®)/4 mM L-glutamine (GIBCO®) mixture at a ratio of 4:1 at 37° C. for 24 hours. When the cells were attached in the bottom of the well, the seriously-diluted compounds with different concentrations ([…]) were treated with the cells for 48 hours, and the PTERT(3.4)-SEAP cells without drug treatment were being the control. After 48 hours of drug treatment, the cultured medium were collected for performing the analysis of SEAP activity. The cells were washed with 1×PBS once immediately, and the MTT assay was performed to compare the compounds with the relative toxicity or the influence to the proliferation and activity.
The cellular medium after the cellular incubation was transferred into the eppondorf tube, and the activity of endogeneous alkaline phosphatase was inactivated at 65° C. for 10 minutes. After centrification, the mixture was obtained by mixing 50 μl of the supernatant with the equal volume of the SEAP buffer. The mixture and the substrate (120 mM of p-nitrophenylphosphate) were preheated at 37° C. for 10 minutes respectively, and the mixture and the substrate were mixed at a ratio of 1:10 and reacted at 37° C. The absorbance of visible light at 405 nm was determined at the appropriate time intervals, and the enzymatic activity of SEAP was represented by the speed of the increasing absorbance at 405 nm.
Consider `O=C(CCl)Nc1ccc2c(c1)C(=O)c1cc(NC(=O)CCl)ccc1C2=O` [Compound 3, 2,7-bis(chloroacetamido)anthraquinone], for which the activity at 10 µM was found to be 69 ± 34% and the activity at 100 µM worked out at 135 ± 21%.

Staying with this data set, now noted: Homo sapiens; BJ1; compound concentration 1 μM; read-out: SEAP (Inhibition μM ± SD).
In the case of `O=C1c2ccc([N+](=O)[O-])cc2C(=O)c2cc([N+](=O)[O-])ccc21` [Compound 1, 2,7-dinitroanthraquinone], the activity at 1 µM was 55 ± 21%.

Staying with this data set, now noted: Homo sapiens; BJ1; compound concentration 10 μM; read-out: SEAP (Inhibition μM ± SD).
For `O=C1c2ccc([N+](=O)[O-])cc2C(=O)c2cc([N+](=O)[O-])ccc21` [Compound 1, 2,7-dinitroanthraquinone], the activity at 10 µM stood at 60 ± 35%.

Staying with this data set, now noted: Homo sapiens; BJ1; compound concentration 100 μM; read-out: SEAP (Inhibition μM ± SD).
Regarding `O=C1c2ccc([N+](=O)[O-])cc2C(=O)c2cc([N+](=O)[O-])ccc21` [Compound 1, 2,7-dinitroanthraquinone], the activity at 100 µM was determined as 65 ± 23%.

Tested on in the next data set: not given
Assay: not given
Settings: not given
In turn, `O=C1c2ccc([N+](=O)[O-])cc2C(=O)c2cc([N+](=O)[O-])ccc21` [Compound 1, 2,7-dinitroanthraquinone] had a melting point of 284 °C.

`O=C(CCl)Nc1ccc2c(c1)C(=O)c1cc(NC(=O)CCl)ccc1C2=O` [Compound 3, 2,7-bis(chloroacetamido)anthraquinone]: the melting point came to 286 °C.
